Reference: ChEMBL document CHEMBL1201862, “PubChem BioAssay data set” (2004)
pIC50: −log10 of the molar value. Activity calls are given as the source filed them.

How the values were obtained:
[1] = target: Glycogen synthase kinase-3 beta (Homo sapiens, UniProt P49841); assay: GSK3beta kinase inhibitors, dose response, biochemical, microfluidics, dry powder samples, set 2 (AID 623989); assay type: functional
[2] = target: Glycogen synthase kinase-3 alpha (Homo sapiens, UniProt P49840); assay: human GSK3 alpha kinase inhibition, dose response, selectivity assay for GSK3beta inhibitor project, biochemical, microfluidics, dry powder samples, set 2 (AID 623978); assay type: functional
Chain of Glycogen synthase kinase-3 alpha (P49840 whole entry): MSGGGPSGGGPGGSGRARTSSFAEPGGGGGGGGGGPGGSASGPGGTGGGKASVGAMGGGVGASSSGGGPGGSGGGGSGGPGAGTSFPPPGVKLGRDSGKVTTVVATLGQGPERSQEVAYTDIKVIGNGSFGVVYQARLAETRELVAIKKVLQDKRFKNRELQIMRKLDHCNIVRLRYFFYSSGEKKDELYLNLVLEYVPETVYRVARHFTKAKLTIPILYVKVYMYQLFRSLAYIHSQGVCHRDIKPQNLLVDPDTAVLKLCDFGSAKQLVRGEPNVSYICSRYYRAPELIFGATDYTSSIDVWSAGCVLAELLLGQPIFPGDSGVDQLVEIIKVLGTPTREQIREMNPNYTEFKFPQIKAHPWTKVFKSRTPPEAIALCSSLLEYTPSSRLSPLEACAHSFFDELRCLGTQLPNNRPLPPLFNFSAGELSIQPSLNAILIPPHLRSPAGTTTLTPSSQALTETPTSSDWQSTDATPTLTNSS

[3] = NIH-3T3 fibroblast cytotoxicity, dose response, cytotoxicity control, cell-based, fluorescence, Alamar Blue, secondary assay (AID 2327); assay type: functional;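 also: NIH-3T3 mouse fibroblasts cultured with fluconazole at 8 µg/mL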
[4] = target: T1, Delta-type opioid receptor (Homo sapiens, UniProt P41143); assay: HTS Image-Based Screen for Antagonists of the DOR Receptor. [Related pubchem assays (depositor defined):AID1777, AID1785, AID1786, AID2133]; assay type: functional
T1 sequence (P41143 whole entry): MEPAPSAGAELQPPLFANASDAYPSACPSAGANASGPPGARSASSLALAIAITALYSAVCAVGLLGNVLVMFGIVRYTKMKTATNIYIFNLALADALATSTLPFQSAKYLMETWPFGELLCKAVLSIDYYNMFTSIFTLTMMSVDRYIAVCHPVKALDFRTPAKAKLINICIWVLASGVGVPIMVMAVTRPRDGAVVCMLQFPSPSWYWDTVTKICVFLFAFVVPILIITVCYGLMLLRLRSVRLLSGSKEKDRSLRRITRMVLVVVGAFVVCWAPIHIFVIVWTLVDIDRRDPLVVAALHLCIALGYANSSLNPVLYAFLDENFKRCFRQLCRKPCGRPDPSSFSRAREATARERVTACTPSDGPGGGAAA

Mu-type opioid receptor = Mu-type opioid receptor (Homo sapiens, UniProt P35372); assay: HTS Image-Based Screen for Agonists of the MOR Receptor. [Related pubchem assays (depositor defined):AID1777, AID1785, AID1786, AID2133]; assay type: functional;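 also: imaging of beta-arrestin GFP recruitment into spots after receptor activation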
Chain of Mu-type opioid receptor (P35372 whole entry): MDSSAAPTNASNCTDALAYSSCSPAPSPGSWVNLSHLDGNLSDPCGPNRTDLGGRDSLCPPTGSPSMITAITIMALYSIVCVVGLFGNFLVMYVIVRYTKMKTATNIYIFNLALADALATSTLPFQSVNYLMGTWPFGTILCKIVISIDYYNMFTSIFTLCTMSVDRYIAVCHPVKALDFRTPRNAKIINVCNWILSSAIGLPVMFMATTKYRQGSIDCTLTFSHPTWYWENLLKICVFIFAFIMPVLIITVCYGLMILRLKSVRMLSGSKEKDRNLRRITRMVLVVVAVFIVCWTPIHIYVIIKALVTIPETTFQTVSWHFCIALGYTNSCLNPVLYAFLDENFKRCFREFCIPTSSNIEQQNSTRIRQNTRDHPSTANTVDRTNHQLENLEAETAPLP

[5] = Luminescence Cell-Based Dose Confirmation HTS to Identify Activators of 5'UTR Stem-Loop Driven Alpha-Synuclein mRNA Translation in H4 Neuroglioblastoma Cells. [Related pubchem assays: 1829 (Project Summary), 1814 (Primary HTS)]; assay type: functional
[6] = Luminescence Cell-Based Dose Response HTS to Identify Activators of Luciferase Translation or Activity in H4 […] Cells. [Related pubchem assays: 1829 (Project Summary), 1814 (Primary HTS)]; assay type: functional
[7] = target: T1, Delta-type opioid receptor; assay: HTS Image-Based Screen for Agonists of the DOR Receptor. [Related pubchem assays (depositor defined):AID1777, AID1786, AID2133]; assay type: functional
BJ [8] = assay: cytotoxicity toward BJ-TERT fibroblasts, dose response, cell-based, RAS-independent, luminescence (AID 1933); assay type: functional; settings: Homo sapiens
H4 = assay: Luminescence Cell-Based Dose Response HTS to Identify Activators of 5'UTR Stem-Loop Driven Prion Protein mRNA Translation in H4 Neuroglioblastoma Cells. [Related pubchem assays: 1829 (Project Summary), 1814 (Primary HTS)]; assay type: functional; settings: Homo sapiens
Beta-galactosidase [9] = target: T2, Beta-galactosidase (Escherichia coli, UniProt Q8VNN2); assay: PubChem AID 485352; assay type: functional
T2 sequence (Q8VNN2 whole entry): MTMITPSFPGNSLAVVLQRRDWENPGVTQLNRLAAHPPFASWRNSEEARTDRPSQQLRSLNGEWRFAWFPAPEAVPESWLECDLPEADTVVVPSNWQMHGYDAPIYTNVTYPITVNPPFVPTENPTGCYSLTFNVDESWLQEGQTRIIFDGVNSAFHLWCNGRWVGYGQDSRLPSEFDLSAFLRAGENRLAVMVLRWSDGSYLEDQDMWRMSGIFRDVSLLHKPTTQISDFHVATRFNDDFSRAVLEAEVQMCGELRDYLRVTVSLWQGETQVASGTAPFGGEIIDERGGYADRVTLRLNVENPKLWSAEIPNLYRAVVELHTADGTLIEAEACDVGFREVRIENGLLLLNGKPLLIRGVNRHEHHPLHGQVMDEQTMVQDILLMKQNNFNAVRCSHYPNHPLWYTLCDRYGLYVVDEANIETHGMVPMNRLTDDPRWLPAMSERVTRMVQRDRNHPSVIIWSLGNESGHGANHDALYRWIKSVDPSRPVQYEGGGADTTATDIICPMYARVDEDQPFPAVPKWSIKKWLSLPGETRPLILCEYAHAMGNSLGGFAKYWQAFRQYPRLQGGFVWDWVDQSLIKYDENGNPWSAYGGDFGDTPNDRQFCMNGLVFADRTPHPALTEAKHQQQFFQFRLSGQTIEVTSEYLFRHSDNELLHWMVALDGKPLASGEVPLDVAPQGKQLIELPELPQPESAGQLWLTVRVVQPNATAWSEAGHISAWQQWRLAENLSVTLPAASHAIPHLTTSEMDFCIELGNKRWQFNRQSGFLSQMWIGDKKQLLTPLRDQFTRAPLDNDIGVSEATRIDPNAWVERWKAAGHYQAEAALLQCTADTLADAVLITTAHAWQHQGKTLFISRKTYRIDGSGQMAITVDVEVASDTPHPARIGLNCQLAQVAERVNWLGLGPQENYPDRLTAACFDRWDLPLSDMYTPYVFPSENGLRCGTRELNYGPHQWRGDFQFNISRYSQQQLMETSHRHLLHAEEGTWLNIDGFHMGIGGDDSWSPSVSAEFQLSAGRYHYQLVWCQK

BJ [10] = assay: cells; assay type: functional, cell-based; settings: Homo sapiens
[11] = Luminescence-based dose response cell-based high throughput screening assay for cytotoxic compounds using the IEC-6 intestinal epithelial cell line. [Related pubchem assays: 1858 (Summary AID.), 1825 (Counterscreen.), 1907 (Confirmation screen.)]; assay type: functional
[12] = target: Type-1 angiotensin II receptor (Homo sapiens, UniProt P30556); assay: AT1 receptor antagonists, dose response, selectivity assay for APJ receptor antagonist project, cell-based, uHTS hits (AID 463214); assay type: functional;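 also: antagonist potency against angiotensin II stimulated AT1 response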
[13] = target: T3, Kappa-type opioid receptor (Homo sapiens, UniProt P41145); assay type: functional
T3 sequence (P41145 whole entry): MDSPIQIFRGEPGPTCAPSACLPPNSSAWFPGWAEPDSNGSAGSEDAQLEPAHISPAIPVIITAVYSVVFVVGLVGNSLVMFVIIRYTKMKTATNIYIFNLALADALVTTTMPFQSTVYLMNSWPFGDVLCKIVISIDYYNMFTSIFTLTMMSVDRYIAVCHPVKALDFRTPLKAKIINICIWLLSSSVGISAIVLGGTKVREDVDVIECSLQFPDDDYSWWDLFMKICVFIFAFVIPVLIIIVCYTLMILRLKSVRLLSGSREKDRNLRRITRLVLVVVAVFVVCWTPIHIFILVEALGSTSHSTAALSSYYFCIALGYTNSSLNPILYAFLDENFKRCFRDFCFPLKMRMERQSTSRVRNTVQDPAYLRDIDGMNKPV

Beta-galactosidase [14] = target: T2, Beta-galactosidase; assay type: functional
BJ [15] = assay: cytotoxicity toward BJ-TERT-LT-ST fibroblasts, dose response, cell-based, RAS-independent, luminescence (AID 1935); assay type: functional; settings: Homo sapiens;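 also: BJ fibroblasts immortalized with TERT plus LT and ST oncogenes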
[16] = target: T3, Kappa-type opioid receptor; assay type: functional; remark: listed apart in the source
[17] = cytotoxicity toward DRD oncogenic fibroblasts, dose response, cell-based, non-viral oncogenic, luminescence (AID 1934); assay type: functional; settings: Homo sapiens
[18] = cytotoxicity in HEK-293T cells, dose response, cytotoxicity control for TCR NF-kB inhibitor project, luminescence, T-cell screen hits (AID 489026); assay type: functional, cell-based;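 also: cells exposed to compound about 14 hours before the viability readout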
Vero [19] = assay: cells; assay type: functional, cell-based; settings: Chlorocebus sabaeus
BJ [20] = assay: cytotoxicity toward Ras-transformed BJeLR fibroblasts, dose response, cell-based, alamar blue fluorescence, cherrypicked samples (AID 2631); assay type: functional; settings: Homo sapiens;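 also: confirmatory dose-response assay in RAS-dependent BJ fibroblasts engineered with TERT, LT and ST, with cytotoxicity read by fluorescence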
Vero [21] = assay: cells; assay type: functional; settings: Chlorocebus sabaeus
[22] = target: T4, Polyadenylate-binding protein 1 (Homo sapiens, UniProt P11940); assay: PABP1 MLLE–PAM2 interaction inhibitors, dose response, miRNA deadenylation inhibitor project, biochemical, fluorescence polarization, Cy5-PAM2 peptide, secondary (AID 602260); assay type: functional; settings: read-out: IC50_Mean
T4 sequence (P11940 whole entry): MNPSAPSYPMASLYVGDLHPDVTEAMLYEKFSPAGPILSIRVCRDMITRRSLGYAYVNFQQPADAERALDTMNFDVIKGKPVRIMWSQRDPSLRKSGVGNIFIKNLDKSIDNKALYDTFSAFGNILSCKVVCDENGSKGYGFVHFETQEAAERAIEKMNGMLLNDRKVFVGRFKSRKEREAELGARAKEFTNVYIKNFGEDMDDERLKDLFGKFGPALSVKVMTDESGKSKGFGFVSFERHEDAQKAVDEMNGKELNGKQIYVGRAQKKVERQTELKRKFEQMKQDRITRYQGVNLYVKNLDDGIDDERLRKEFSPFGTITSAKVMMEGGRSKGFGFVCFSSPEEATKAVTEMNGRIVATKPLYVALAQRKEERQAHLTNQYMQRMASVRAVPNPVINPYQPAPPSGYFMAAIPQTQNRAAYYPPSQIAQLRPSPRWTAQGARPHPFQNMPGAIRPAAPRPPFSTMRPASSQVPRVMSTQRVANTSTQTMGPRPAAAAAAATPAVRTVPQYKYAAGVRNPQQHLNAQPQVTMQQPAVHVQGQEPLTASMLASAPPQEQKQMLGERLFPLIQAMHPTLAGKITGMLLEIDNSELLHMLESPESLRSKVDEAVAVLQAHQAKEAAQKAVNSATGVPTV

[23] = Shn3 3'UTR reporter inhibitors, dose response, cell-based, Clone20 osteoblasts, firefly luciferase, cherry-picked (AID 624132); assay type: functional;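 also: firefly luciferase luminescence from reporter carrying the Shn3 3'UTR in osteoblasts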
[24] = target: T4, Polyadenylate-binding protein 1; assay: PABP1 MLLE–PAM2 binding inhibitor potency, dose response, biochemical, fluorescence polarization, FITC-PAM2 peptide (AID 602259); assay type: functional; settings: read-out: IC50_Mean
[25] = target: 26S proteasome non-ATPase regulatory subunit 14 (Homo sapiens, UniProt O00487); assay: inhibition of proteasome subunit RPN11 – biochemical, fluorescence polarization, uHTS hits, confirmation (AID 602368); assay type: functional
Chain of 26S proteasome non-ATPase regulatory subunit 14 (O00487 whole entry): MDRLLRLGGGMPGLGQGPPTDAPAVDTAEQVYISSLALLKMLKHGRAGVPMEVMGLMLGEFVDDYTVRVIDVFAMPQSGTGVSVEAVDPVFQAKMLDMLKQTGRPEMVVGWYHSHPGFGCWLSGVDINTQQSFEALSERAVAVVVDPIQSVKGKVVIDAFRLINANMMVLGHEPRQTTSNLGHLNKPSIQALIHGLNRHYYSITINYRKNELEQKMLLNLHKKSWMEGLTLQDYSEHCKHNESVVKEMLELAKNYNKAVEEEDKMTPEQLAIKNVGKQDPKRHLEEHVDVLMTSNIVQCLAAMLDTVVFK

[26] = control 3'UTR Renilla luciferase suppression, dose response, counter-screen for Shn3 inhibitor project, cell-based, Clone20-Shn3RL, cherry-picked (AID 624133); assay type: functional
[27] = target: 72 kDa type IV collagenase (Homo sapiens, UniProt P08253); assay: Dose Response validation of uHTS RPN11 inhibitor hits using a MMP-2 Fluorescence assay.; assay type: functional
Prothrombin = Prothrombin (Bos taurus, UniProt P00735); assay: thrombin inhibition, dose response, biochemical, fluorescence polarization, uHTS hits (AID 602369); assay type: functional
[28] = target: Multidrug resistance protein CDR2 (Candida albicans (strain SC5314 / ATCC MYA-2876) (Yeast), UniProt P78595); assay: CaCDR2 efflux pump inhibitors in yeast, dose response, S. cerevisiae AD1-8u, singleplex, Cherry Pick1 hits (AID 588604); assay type: functional
[29] = SAR analysis of small molecule activators of Apaf-1 using a LZ-Caspase-9/Caspase-3 Fluorescent Selectivity assay - Set 2.; assay type: functional; settings: read-out: EC50_Mean
[30] = target: T5, Apoptotic protease-activating factor 1 (Homo sapiens, UniProt O14727); assay: SAR analysis of small molecule Activators of Apaf-1 in a Fluorescent assay - set 2.; assay type: functional; settings: read-out: EC50_Mean
T5 sequence (O14727 whole entry): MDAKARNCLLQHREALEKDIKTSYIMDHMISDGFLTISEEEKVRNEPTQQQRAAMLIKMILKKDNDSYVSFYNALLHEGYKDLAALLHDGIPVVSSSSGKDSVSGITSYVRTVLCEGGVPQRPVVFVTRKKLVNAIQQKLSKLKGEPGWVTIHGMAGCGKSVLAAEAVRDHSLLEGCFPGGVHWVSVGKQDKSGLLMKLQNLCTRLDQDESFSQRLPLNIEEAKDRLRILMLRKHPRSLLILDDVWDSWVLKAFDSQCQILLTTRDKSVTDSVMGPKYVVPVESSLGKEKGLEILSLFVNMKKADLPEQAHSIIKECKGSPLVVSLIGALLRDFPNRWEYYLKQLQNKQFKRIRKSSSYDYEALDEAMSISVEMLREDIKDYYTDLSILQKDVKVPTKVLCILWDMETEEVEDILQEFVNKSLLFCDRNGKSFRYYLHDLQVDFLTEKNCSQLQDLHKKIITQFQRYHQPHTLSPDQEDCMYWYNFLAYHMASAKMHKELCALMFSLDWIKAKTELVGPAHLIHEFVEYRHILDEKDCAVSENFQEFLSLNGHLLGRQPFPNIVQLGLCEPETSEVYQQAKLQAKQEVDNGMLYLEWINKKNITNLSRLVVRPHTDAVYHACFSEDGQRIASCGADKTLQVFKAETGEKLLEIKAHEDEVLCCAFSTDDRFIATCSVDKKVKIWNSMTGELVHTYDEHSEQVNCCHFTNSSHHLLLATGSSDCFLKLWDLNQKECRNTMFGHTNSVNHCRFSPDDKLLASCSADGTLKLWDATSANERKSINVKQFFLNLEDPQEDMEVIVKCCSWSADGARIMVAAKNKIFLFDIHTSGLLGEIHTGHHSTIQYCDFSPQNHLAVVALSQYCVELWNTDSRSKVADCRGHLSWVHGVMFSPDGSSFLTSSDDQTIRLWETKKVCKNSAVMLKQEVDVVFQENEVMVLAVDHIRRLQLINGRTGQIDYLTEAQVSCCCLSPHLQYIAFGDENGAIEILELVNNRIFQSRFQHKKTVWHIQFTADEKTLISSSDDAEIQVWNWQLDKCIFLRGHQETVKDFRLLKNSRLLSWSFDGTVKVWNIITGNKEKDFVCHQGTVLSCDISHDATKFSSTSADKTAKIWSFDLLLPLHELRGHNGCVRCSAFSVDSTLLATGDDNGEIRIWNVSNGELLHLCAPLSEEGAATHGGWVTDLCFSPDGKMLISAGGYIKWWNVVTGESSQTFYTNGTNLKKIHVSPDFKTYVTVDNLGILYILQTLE

[31] = target: Serine/threonine-protein kinase pim-1 (Homo sapiens, UniProt P11309); assay type: functional
Chain of Serine/threonine-protein kinase pim-1 (P11309 whole entry): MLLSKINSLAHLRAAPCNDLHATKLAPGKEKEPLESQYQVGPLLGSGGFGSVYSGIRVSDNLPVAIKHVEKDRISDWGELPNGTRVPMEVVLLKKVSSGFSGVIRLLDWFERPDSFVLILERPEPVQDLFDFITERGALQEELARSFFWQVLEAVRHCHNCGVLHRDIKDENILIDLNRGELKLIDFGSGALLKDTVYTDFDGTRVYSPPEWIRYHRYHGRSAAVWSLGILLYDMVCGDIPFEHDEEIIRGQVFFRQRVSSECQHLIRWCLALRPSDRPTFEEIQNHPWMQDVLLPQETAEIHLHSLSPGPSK

[32] = target: Casein kinase II subunit alpha (Homo sapiens, UniProt P68400); assay type: functional
[33] = target: Serine/threonine-protein kinase pim-3 (Homo sapiens, UniProt Q86V86); assay type: functional;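 also: value obtained as one member of a broad kinase panel profiling effort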
[34] = target: Casein kinase I isoform delta (Homo sapiens, UniProt P48730); assay type: functional;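 also: measured as one member (CSNK1D) of a kinome panel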
[35] = target: Dual specificity protein kinase CLK4 (Homo sapiens, UniProt Q9HAZ1); assay type: functional
Chain of Dual specificity protein kinase CLK4 (Q9HAZ1 whole entry): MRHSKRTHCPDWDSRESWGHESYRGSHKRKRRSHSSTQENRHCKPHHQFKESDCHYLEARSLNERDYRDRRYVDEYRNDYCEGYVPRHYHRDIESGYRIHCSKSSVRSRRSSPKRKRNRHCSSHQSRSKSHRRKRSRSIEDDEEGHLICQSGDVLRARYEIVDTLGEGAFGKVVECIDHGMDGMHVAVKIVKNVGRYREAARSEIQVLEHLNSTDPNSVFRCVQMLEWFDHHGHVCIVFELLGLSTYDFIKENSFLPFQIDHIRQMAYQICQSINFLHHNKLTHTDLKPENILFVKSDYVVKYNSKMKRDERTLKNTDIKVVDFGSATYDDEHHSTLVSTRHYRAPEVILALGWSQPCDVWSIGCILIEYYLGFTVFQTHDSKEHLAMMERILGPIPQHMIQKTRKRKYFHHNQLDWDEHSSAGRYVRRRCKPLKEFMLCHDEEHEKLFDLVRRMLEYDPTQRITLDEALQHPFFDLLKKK

[36] = target: Mitogen-activated protein kinase kinase kinase kinase 4 (Homo sapiens, UniProt O95819); assay type: functional
[37] = target: Dual specificity tyrosine-phosphorylation-regulated kinase 1A (Homo sapiens, UniProt Q13627); assay type: functional;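 also: measured against DYRK1A as one member of a broad kinome profiling panel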
[38] = target: DNA dC->dU-editing enzyme APOBEC-3A (Homo sapiens, UniProt P31941); assay: SAR analysis of small molecule inhibitors of APOBEC3A DNA Deaminase via a fluorescence-based single-stranded DNA deaminase assay - Set 2.; assay type: functional; settings: read-out: IC50_Mean
Chain of DNA dC->dU-editing enzyme APOBEC-3A (P31941 whole entry): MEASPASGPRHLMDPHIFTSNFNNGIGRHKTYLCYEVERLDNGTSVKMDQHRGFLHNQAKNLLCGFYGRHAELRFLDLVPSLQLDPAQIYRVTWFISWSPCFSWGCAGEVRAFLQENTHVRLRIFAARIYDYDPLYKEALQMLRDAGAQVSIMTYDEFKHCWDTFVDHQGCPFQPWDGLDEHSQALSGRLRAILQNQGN

[39] = target: DNA dC->dU-editing enzyme APOBEC-3G (Homo sapiens, UniProt Q9HC16); assay: SAR analysis of small molecule inhibitors of APOBEC3G DNA Deaminase via a fluorescence-based single-stranded DNA deaminase assay - Set 2.; assay type: functional; settings: read-out: IC50_Mean
[40] = target: Melanin-concentrating hormone receptor 1 (Homo sapiens, UniProt Q99705); assay: Late-stage fluorescence-based counterscreen for antagonists of the G-protein coupled receptor 7 (GPR7): cell-based dose response assay to identify antagonists of the melanin-concentrating hormone receptor 1 (MCHR1) Set 6.; assay type: functional
Chain of Melanin-concentrating hormone receptor 1 (Q99705 whole entry): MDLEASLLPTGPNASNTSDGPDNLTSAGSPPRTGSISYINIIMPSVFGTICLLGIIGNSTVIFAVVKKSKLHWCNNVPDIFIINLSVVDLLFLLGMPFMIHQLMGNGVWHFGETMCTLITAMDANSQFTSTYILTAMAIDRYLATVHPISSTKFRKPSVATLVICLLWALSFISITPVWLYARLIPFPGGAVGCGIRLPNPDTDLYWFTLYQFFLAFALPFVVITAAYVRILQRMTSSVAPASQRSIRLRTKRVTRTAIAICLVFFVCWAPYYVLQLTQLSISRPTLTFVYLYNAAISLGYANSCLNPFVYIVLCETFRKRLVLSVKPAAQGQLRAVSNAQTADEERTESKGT

[41] = target: T6, Neuropeptides B/W receptor type 1 (Homo sapiens, UniProt P48145); assay: GPR7 antagonist potency, late-stage follow-up, cell-based, fluorescence, dose response, set 6 (AID 588583); assay type: functional
T6 sequence (P48145 whole entry): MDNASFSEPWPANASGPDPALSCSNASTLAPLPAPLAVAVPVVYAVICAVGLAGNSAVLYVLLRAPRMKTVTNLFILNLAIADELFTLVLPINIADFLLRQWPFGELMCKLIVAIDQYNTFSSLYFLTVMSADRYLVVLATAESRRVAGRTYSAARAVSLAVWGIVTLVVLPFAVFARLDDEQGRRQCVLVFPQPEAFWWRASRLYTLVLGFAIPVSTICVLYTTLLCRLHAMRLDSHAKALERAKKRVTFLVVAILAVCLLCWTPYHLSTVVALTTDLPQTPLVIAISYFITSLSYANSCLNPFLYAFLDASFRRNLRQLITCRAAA

## Cc1cccc(OCC(=O)Nc2ccc3c(c2)C(=O)NC3=O)c1
[1]
  AC50: 1.36 µM (active)
[2]
  AC50: 8 µM (active)

## O=C(Sc1cccc2cccnc12)c1ccccc1Br
[3]
  EC50: 31.8 µM (active)
[4]
  IC50: > 32 µM (inactive)
Mu-type opioid receptor
  EC50: > 32 µM (inactive)
[5]
  EC50: > 120 µM (not active)
[6]
  EC50: > 120 µM (not active)
[7]
  EC50: > 32 µM (inactive)
BJ [8]
  EC50: 12.7 µM (active)
H4
  EC50: > 120 µM (not active)
Beta-galactosidase [9]
  EC50: > 40 µM (inactive)
BJ [10]
  EC50: > 150 µM (inconclusive)
[11]
  IC50: 0.514 µM (active)
[12]
  IC50: 3.51 µM (active)
[13]
  IC50: 10.5 µM (active)
Beta-galactosidase [14]
  EC50: > 31.5 µM (inactive)
BJ [15]
  EC50: 36.8 µM (active)
[16]
  pIC50: < 4.49
[17]
  EC50: 2.48 µM (active)
[18]
  IC50: 57.8 µM (inactive)
Vero [19]
  IC50: > 25 µM (active)
BJ [20]
  EC50: 0.328 µM (active)
Vero [21]
  CC50: 9.91 µM (active)
[22]
  IC50: > 66 µM (inactive)
[23]
  AC50: 0.383 µM (active)
[24]
  IC50: > 66 µM (inactive)
[25]
  IC50: 6.65 µM (active)
[26]
  AC50: 13.3 µM (active)
[27]
  IC50: > 100 µM (inactive)
Prothrombin
  IC50: > 100 µM (inactive)

## O=C(Oc1ccc2c(=O)c(Oc3ccc4ccccc4c3)coc2c1)c1cncc(Br)c1
[28]
  EC50: 22.2 µM (active)

## CC(CN1CCOCC1)C(=O)O (centres undefined)
[29]
  EC50: > 100 µM (inactive)
[30]
  EC50: > 100 µM (inactive)

## O=c1oc2ccccc2c2[nH]c(-c3ccccc3)nc12
[31]
  Ki: 1 µM (active)
[32]
  Ki: 2 µM (active)
[33]
  Ki: 1.58 µM (active)
[34]
  Ki: 6.31 µM (active)
[35]
  Ki: 1.26 µM (active)
[36]
  Ki: 5.01 µM (active)
[37]
  Ki: 1.58 µM (active)

## O=C(O)c1cc2ncccn2n1
[38]
  IC50: 2.6 µM (active)
[39]
  IC50: 1.73 µM (active)

## N#CC(c1ccc([N+](=O)[O-])cc1)c1c(Cl)cnn(Cc2cccc3ccccc23)c1=O (centres undefined)
[40]
  IC50: 0.303 µM (active)
[41]
  IC50: 0.303 µM (active)
